Values after ≈ are worked out from the molar mass of the structure shown. Where two headings read alike, the source gives them in different places.
Experiments:
[1] = tested on: Salmonella enterica serovar Typhimurium ATCC 14028
[2] = tested on: Staphylococcus aureus ATCC 6538; experiment: MIC determination by broth micro dilution (Example 5); type: cell-based; conditions: ATCC6538; Staphylococcus aureus ATCC 6538, 4.5×10^3 Cfu/Ml
Method: Minimum Inhibitory Concentration (MIC) Determination by Broth Micro Dilution
(§1) Standardisation of Inoculum
The suspensions were mixed. […] The inoculums were 30 mixed.
(§2) Inoculation and Incubation
100 μl of the initial concentration of the sample was added to the first well.
Staphylococcus aureus ATCC 6538 4.5×10^3 Cfu/Ml

in vitro = conditions: human
[3] = tested on: Candida albicans ATCC 10231; type: cell-based; conditions: ATCC10231
Method: (§3) MIC Determination by Broth Micro Dilution
as §1
(§4) The inoculums were mixed.
as §2

[4] = tested on: Candida albicans NCTC 885-653; type: cell-based; design: unit not given beside the values
Method: as §3, §1, §4, §2

[5] = type: cell-based; conditions: Table 12, strain not named
Method: as §3, §1, §4, §2

SMILES	MIC ([1]; Salmonella enterica)	MIC [2]	MIC [3]	also measured
CN[C@H](CC(C)C)C(=O)N[C@H]1C(=O)N[C@@H](CC(N)=O)C(=O)N[C@H]2C(=O)N[C@H]3C(=O)N[C@H](C(=O)N[C@H](C(=O)O)c4cc(O)cc(O)c4-c4cc3ccc4O)[C@H](O)c3ccc(c(Cl)c3)Oc3cc2cc(c3O[C@@H]2O[C@H](CO)[C@@H](O)[C@H](O)[C@H]2O[C@H]2C[C@](C)(N)[C@H](O)[C@H](C)O2)Oc2ccc(cc2Cl)[C@H]1O [Vancomycin, reference compound]	78 µg/mL (≈ 53.8 µM)			
Cc1ccc(C(C)C)c(OC(=O)C[N+](C)(C)CCCCCCCCCC[N+](C)(C)CCCCCCCCCC[N+](C)(C)CC(=O)Oc2cc(C)ccc2C(C)C)c1 [Formula VII, N1-(2-(2-isopropyl-5-methylphenoxy)−2-oxoethyl)-N10-(10-((2-(2-isopropyl-5-methylphenoxy)-2-oxoethyl)dimethylammonio)decyl)-N1,N1,N10,N10-tetramethyldecane-1,10-diaminium bromide dichloride]		0.98 µg/mL		
Cc1ccc(C(C)C)cc1OC(=O)C[N+](C)(C)CCCCCCCCCC[N+](C)(C)CC(=O)Oc1cc(C(C)C)ccc1C [Formula IV, N1,N10-bis(2-(5-isopropyl-2-methylphenoxy)−2-oxoethyl)-N1,N1,N10,N10-tetramethyldecane-1,10-diaminium dichloride]	3.9 µg/mL		3.9 to 7.8 µg/mL	CC50 (in vitro): > 120 µg/mL; MIC ([1]; Salmonella enterica serovar Typhimurium ATCC 14028 (log 4 conditions)): 3.9
Cc1ccc(C(C)C)c(OC(=O)C[N+](C)(C)CCCCCCCCCC[N+](C)(C)CC(=O)Oc2cc(C)ccc2C(C)C)c1 [Formula V, N1,N10-bis(2-(2-isopropyl-5-methylphenoxy)−2-oxoethyl)-N1,N1,N10,N10-tetramethyldecane-1,10-diaminium dichloride]			3.9 to 7.8 µg/mL	MIC (Table 11, head not given) [4]: 3.9-7.8; MIC [5]: 0.98 µg/mL
Cc1ccc(C(C)C)c(OC(=O)C[N+](C)(C)CCCCCCCCCC[N+](C)(C)CCCCCCCCCC[N+](C)(C)CC(=O)Oc2cc(C(C)C)ccc2C)c1.[Br-].[Cl-].[Cl-] [Comparative compound 1, reference compound]		1.95 µg/mL		
